Assay [1] in a line: microbe, parasite or virus in culture. Particulars: Mycobacterium tuberculosis, 96 h, read-out: pIC50 (converted).
The nature of assay [2]: microbe, parasite or virus in culture. Particulars: Mycobacterium tuberculosis, 72 h, read-out: pIC50 (converted).

Regarding `CCOCC(C)Nc1ccc(C)c(S(C)(=O)=O)c1` (stereo unspecified), the IC50 in assay [1] is 221 µM; in assay [2], 188 µM.

For `CC(C)c1nccn1C(C)C(=O)N1CCN(c2cnccn2)CC1` (stereo unspecified), the IC50 in assay [1] and in assay [2] was over 50.1 µM throughout.

Turning to `O=C(NCCCOC(F)F)NCc1ccc(Br)o1`, the IC50 was 125 µM in assay [1] and 135 µM in assay [2].

Regarding `O=C(c1coc(COc2cccc3cnccc23)n1)N1CCSCC1`, the IC50 in assay [1] and in assay [2] was over 50.1 µM in each case.

Consider `COCc1n[nH]c2c1CN(C(=O)c1ccncc1)C2`, for which the figures for the IC50 in assay [1] and in assay [2] were over 50.1 µM and 29.7 µM, respectively.

As to `COCCOc1ccc(NC(=O)OCC(F)(F)F)cn1`, the figures for the IC50 in assay [1] and in assay [2] were 110 µM and 208 µM, respectively.

Regarding `CSCCC(=O)NCc1ccc(C)s1`, the IC50 in assay [1] and in assay [2] was over 501 µM in each case.

On to `CCN1CCC(CNCc2c[nH]nc2C(C)(C)C)C1` (stereo unspecified), for which the figures for the IC50 in assay [1] and in assay [2] were 16.4 µM and over 50.1 µM, respectively.

Regarding `CC(=O)N1CCN(Cc2cc(Br)c3c(c2)OCO3)CC1`, the results for the IC50 in assay [1] and in assay [2] were 394 µM and over 501 µM, respectively.

As for `COc1ccc([S+]([O-])Cc2noc(C)n2)cc1` (stereo unspecified), the IC50 in assay [1] is 143 µM; in assay [2], 206 µM.

As for `Cc1cncc(NS(=O)(=O)CCc2ccccc2)c1`, the IC50 in assay [1] was over 501 µM; in assay [2], 314 µM.

`Cn1nccc1C(=O)N1CCC(Oc2ccccc2)C1` (stereo unspecified): the IC50 was 161 µM in assay [1] and 232 µM in assay [2].

Consider `CN(Cc1nnc(C2CC2)o1)Cc1ccccc1-c1ccccc1`, for which the IC50 in assay [1] was over 50.1 µM; in assay [2], 24.7 µM.

With `NCc1ccnc(OCC(F)(F)F)c1`, the IC50 in assay [1] is 88.7 µM; in assay [2] it was 50 µM.

For the compound `C=C(Br)CN1CCN(CCNC(=O)C2CCC2)CC1`, the IC50 in assay [1] was over 501 µM; in assay [2] it was 278 µM.

For the compound `CCNC(=O)c1cc(N2CCCC(C)CC2)ccn1` (stereo unspecified), the IC50 in assay [1] was 237 µM; in assay [2] it was 143 µM.

As to `CCN1C[C@H](NC(=O)c2ccc(Cl)s2)[C@@H](OC)C1`, the IC50 in assay [1] was over 501 µM; in assay [2], 137 µM.

With `CSCCC(=O)NC(C)c1ccc2c(c1)OCCCO2` (stereo unspecified), the IC50 in assay [1] and in assay [2] was over 501 µM throughout.

On to `CC(Nc1ccc(OC(F)F)cn1)c1ccncc1` (stereo unspecified), for which the IC50 in assay [1] is 246 µM; in assay [2] it was 195 µM.

Regarding `O=C(NCCSC(F)(F)F)Nc1cccc2[nH]nnc12`, the IC50 in assay [1] is 265 µM; in assay [2], 286 µM.

As for `CCCc1ccc(N2CCN(Cc3nc4ccccc4n3C)CC2)cc1`, the IC50 in assay [1] was over 50.1 µM; in assay [2] it was 26 µM.

Consider `COc1cccc(-c2noc(-c3ccc(NCCCO)nc3)n2)c1OC`, for which the IC50 in assay [1] was 21.2 µM; in assay [2], over 50.1 µM.

For the compound `CCN(CC)S(=O)(=O)CC(=O)Nc1ccc(F)c(C)c1`, the results for the IC50 in assay [1] and in assay [2] were 265 µM and 252 µM, respectively.

For the compound `CN(CC(C)(CO)CO)c1ncc(Cl)cc1Cl`, the figures for the IC50 in assay [1] and in assay [2] were 301 µM and 122 µM, respectively.

For the compound `CC(Oc1ccc2c(c1)OCO2)C(=O)NC1CC1` (stereo unspecified), the IC50 in assay [1] and in assay [2] was over 501 µM each time.

On to `O=C1CCN(Cc2cc(Br)cc3cccnc23)CCN1`, for which the results for the IC50 in assay [1] and in assay [2] were over 501 µM and 493 µM, respectively.

For `COC(=O)c1cnc(/C=C/c2ccc(C(=O)O)cc2)s1`, the IC50 in assay [1] is 27.3 µM; in assay [2] it was 26.6 µM.

With `O=C(Cn1cnnn1)Nc1ccc(SC(F)F)cc1`, the IC50 in assay [1] is 290 µM; in assay [2] it was 180 µM.

Take `O=C(Cn1cnnn1)NCC1(c2ccccc2)CCC1`: the IC50 in assay [1] is over 501 µM; in assay [2], 304 µM.

As to `COc1cccc(CNc2nc(C)no2)c1`, the IC50 was over 501 µM in assay [1] and 180 µM in assay [2].

`CC1CCCN(c2nc(C(=O)N3CCOCC3)cs2)C1` (stereo unspecified): the IC50 was 146 µM in assay [1] and 133 µM in assay [2].

Turning to `Cc1ccccc1-c1nnn(CC(O)CC(F)(F)F)n1` (stereo unspecified), the IC50 was 126 µM in assay [1] and 102 µM in assay [2].

Consider `COc1ccc(-c2noc(C3(O)CCCC3)n2)cn1`, for which the IC50 is 104 µM in assay [1] and 282 µM in assay [2].

The values are drawn from ChEMBL document CHEMBL3988442, “University of Dundee, Small-Polar-MMV Screening Library” (2021).
